Laboratory results from patent US20210212960A1, “IDENTIFICATION OF SEIZURE SUSCEPTIBILITY REGION IN WOLF-HIRSCHHORN SYNDROME AND TREATMENT THEREOF” (Lineagen, Inc., priority 2016, published 2021).

Columns and labels:
[1] = test system: seizures in individuals with WHS; test: Online survey of 4p-Support Group parents: seizure control outcome by seizure treatment in WHS (Example 5); assay type: in vivo, human; conditions: for Seizure control outcome: Complete control, Percent / Seizure control outcome: Less than 50% reduction, Percent / Seizure control outcome: No change, Percent / Seizure control outcome: ≥50% reduction, Percent / Seizure control outcome: Increased number of seizure, Percent: percent of users of the medication
Excerpt: This study and all recruitment materials were approved by the University of Utah IRB (IRB_00064655). The cohort for this study was recruited from the 4p-Support Group, which is comprised of parents and caretakers of individuals with WHS. Inclusion criteria were: 1) a genetic diagnosis of WHS and 2) at least one seizure treatment had been used for seizure control. An invitation to participate in the survey was sent out to all members of the 4p-Support Group email list (representing approximately 300 individuals with WHS) and posted on the 4p-Support Group's Facebook page. Individuals self-identifying as a parent or caretaker of an individual with WHS and a history of seizures, who had tried at least one seizure treatment, were invited to participate. The invitation described the purpose of the study and provided a link to the online survey.
The survey was developed by expanding the seizure history and treatment sections of a previous survey used by Ho et al (J Med Genet 2016; 53:256-263). The online survey was hosted by the HIPAA-compliant platform, RedCAP, and consisted of four sections. The first section collected general demographic information about the individual with WHS. Two additional questions were added to confirm whether the individual had genetic testing to confirm the diagnosis of WHS and ascertain which type of genetic testing had been completed. The second section focused on seizure history. This included age of onset, types of seizures, seizure duration, status epilepticus (seizures lasting longer than 30 minutes), and whether the individual still experiences seizures or is seizure free. The third section asked about antiepileptic drugs (AEDs) used for seizure treatment. Participants were asked to list each AED or combination of AEDs tried in chronological order. For each AED or combination of AEDs participants were asked about duration, effect on number of seizures, side effects, and reasons for discontinuing that AED or combination of AEDs. There were also questions about whether the individual was on a ketogenic diet or using cannabis oil during that time. Space for additional comments about each AED or combination of AEDs tried was also provided. The fourth section contained questions about use of ketogenic diet or cannabis oil while in the absence of AEDs. Again participants were asked about duration, effect on number of seizures, side effects, and reasons for discontinuing. In the case of cannabis oil use, participants were asked to specify whether pure cannabis oil or a THC mixture was used.
The levels of seizure control outcome were grouped into five categories: increased number of seizure, no change, less than 50% reduction, >50% reduction, and complete control.
When a medication was used multiple times (or when looking at combined medication), the seizure control outcome was scored as the best response among all of them. The most frequently used 5 medications reported in this cohort are phenobarbital, diazepam, lamotrigine, valproic acid (sodium valproate) and levetiracetam. We used frequency and percentages to describe the seizure control outcome of these five medications. The Kruskal-Wallis test was performed to evaluate the level of seizure control achieved with these five medications. The Wilcoxon rank sum test was performed to evaluate the hypothesis of the different seizure control outcomes between carbamazepine and levetiracetam. Comparison of the seizure control outcome based on whether levetiracetam was used first or later, was performed by the Cochran Armitage test. Statistical analysis was conducted using SAS 9.4 (SAS Inc., N.C.).

[2] = test system: seizures in individuals with WHS; test: Parent-reported responses to seizure medications, questionnaire of the 48-individual WHS cohort (Example 1); assay type: in vivo, human; conditions: n users per drug; for Negative reports: number of unprompted parent reports of a negative reaction causing stop of the drug or no control over seizures; for Positive reports: number of unprompted parent reports of significant and observable increase in control over seizures
Excerpt: This questionnaire captures the health, medical profile, developmental history, and treatment responses of individuals with WHS. For the present study, the focus was on the presence or absence of seizures, age of seizure onset, types of seizures, antiepileptic drugs (AEDs) used and responses to these AEDs, as well as responses to the ketogenic diet. For cases with incomplete, contradictory or unclear parental responses, medical records of patients were consulted. When available medical records were also incomplete, ‘no answer’ is indicated in the relevant text and tables.
AED responses were scored as negative if the patients' parents reported a negative reaction (allergic reaction or other) without prompting that caused them to stop using that drug, or if the drug conferred no control over seizures.

[3] = test system: seizures in patients with 15q Duplication syndrome; conditions: cited from earlier work
[4] = test system: seizures in Dravet patients; conditions: cited from earlier work; for effectiveness of seizure treatment: individuals with Dravet syndrome
[5] = test system: seizures in individuals with WHS and with Dravet syndrome; conditions: individuals with WHS as well as individuals with Dravet syndrome; cited from earlier work
[6] = test system: seizures of this subtype of CDG; conditions: subtype of CDG caused by genes functioning like PIGG; cited from earlier work
[7] = levetiracetam used as first AED (n = 31)
[8] = levetiracetam used later in treatment (n = 27)

Compound | Seizure control outcome: Complete control, Percent [1] [%] | Seizure control outcome: Less than 50% reduction, Percent [1] [%] | Seizure control outcome: No change, Percent [1] [%] | Seizure control outcome: ≥50% reduction, Percent [1] [%] | Negative reports [2] | Positive reports [2] | response to seizure treatment [3] | also measured
CN1C(=O)CN=C(c2ccccc2)c2cc(Cl)ccc21 [Diazepam] | 31.25 | 6.25 | 25 | 37.5 |  |  |  | 
CC1(C)O[C@@H]2[C@@H](CO[C@@]3(COS(N)(=O)=O)OC(C)(C)O[C@@H]23)O1 [Topiramate] |  |  |  |  | 4 | 1 |  | 
NC(=O)N1c2ccccc2C=Cc2ccccc21 [Carbamazepine] | 18.18 | 18.18 | 27.27 | 9.09 |  |  | generally responded well | Seizure control outcome: Increased number of seizure, Percent [1]: 27.27%; aggravates seizures, share of Dravet patients ([4]; Dravet syndrome): 20%; no benefit, share of Dravet patients ([4]; Dravet syndrome): 78%; effect on seizures [5]: exacerbate seizures
Cc1ncc(CO)c(CO)c1O.Cl [Vitamin B6] |  |  |  |  |  |  |  | efficacy in treating seizures [6]: efficacious
Nc1nnc(-c2cccc(Cl)c2Cl)c(N)n1 [Lamotrigine] | 31.25 | 6.25 | 12.5 | 50 |  |  |  | effect on seizures [5]: exacerbate seizures
CCC1(c2ccccc2)C(=O)NC(=O)NC1=O [Phenobarbital] | 61.11 | 11.11 | 13.89 | 11.11 | 5 | 0 |  | Seizure control outcome: Increased number of seizure, Percent [1]: 2.78%
CCCC(CCC)C(=O)O [Valproic acid] | 50 | 9.38 | 9.38 | 31.25 | 2 | 2 | generally responded well | effectiveness of seizure treatment [4]: most effective
Br [bromide] |  |  |  |  |  |  |  | effectiveness of seizure treatment [4]: most effective
CC[C@@H](C(N)=O)N1CCCC1=O [Levetiracetam] | 56.9 | 8.62 | 5.17 | 29.31 | 1 | 4 | generally responded well | Complete control, First use, % [1, 7]: 61.29%; Less than 50% reduction, First use, % [1, 7]: 3.23%; No change, First use, % [1, 7]: 3.23%; ≥50% reduction, First use, % [1, 7]: 32.26%; Complete control, Later use, % [1, 8]: 51.85%; Less than 50% reduction, Later use, % [1, 8]: 14.81%; No change, Later use, % [1, 8]: 7.41%; ≥50% reduction, Later use, % [1, 8]: 25.93%
